Assay results published in patent publication US20090136460A1 (VANDERBILT UNIVERSITY, priority 2007, published 2009).
Like-named read-outs stand apart in the source and are kept apart here. Values belong to the compound of their own block, whether it stands above or below them.

Columns and labels:
A2A adenosine receptor [1] = target: A2A adenosine receptor (Homo sapiens, UniProt P29274); settings: [14] Feoktistov et al, 2001, transfected CHO cells, radioligand [3H]NECA, cited from earlier work
A2B receptors = target: T1, A2B receptors (Mus musculus, UniProt Q60614); assay: NECA-stimulated cAMP accumulation in MCEC-1 cells
T1 sequence (Q60614 1-332): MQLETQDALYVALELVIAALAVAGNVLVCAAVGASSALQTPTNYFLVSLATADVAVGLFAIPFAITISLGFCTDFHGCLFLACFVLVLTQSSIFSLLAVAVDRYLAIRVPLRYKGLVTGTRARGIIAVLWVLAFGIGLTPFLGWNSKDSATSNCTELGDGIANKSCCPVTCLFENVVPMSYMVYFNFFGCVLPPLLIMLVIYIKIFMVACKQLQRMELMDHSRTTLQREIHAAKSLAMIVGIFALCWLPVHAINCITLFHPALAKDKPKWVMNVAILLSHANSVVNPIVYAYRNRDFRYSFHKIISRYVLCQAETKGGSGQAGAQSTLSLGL

[2] = tested on: eEPC adhesion to MCEC-1 cells; assay: eEPC adhesion to MCEC-1 cells under static conditions; format: cell-based, mouse
A2B adenosine receptor [3] = target: T2, A2B adenosine receptor (Homo sapiens, UniProt P29275); settings: [14] Feoktistov et al, 2001, transfected HEK 293 or HEL cells, radioligand [3H]ZM241685, cited from earlier work
T2 sequence (P29275 1-332): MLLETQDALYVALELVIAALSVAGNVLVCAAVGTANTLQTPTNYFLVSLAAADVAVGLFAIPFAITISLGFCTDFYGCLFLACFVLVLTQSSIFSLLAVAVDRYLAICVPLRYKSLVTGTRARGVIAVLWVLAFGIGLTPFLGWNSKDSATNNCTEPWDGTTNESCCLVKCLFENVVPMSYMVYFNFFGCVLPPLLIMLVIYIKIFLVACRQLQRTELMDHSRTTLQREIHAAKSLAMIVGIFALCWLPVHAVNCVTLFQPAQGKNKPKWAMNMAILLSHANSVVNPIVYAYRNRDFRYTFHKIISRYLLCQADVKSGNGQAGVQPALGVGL

A1 adenosine receptor [4] = target: T3, A1 adenosine receptor (Homo sapiens, UniProt P30542); settings: [14] Feoktistov et al, 2001, transfected CHO cells, radioligand [3H]DPCPX, cited from earlier work
T3 sequence (P30542 1-326): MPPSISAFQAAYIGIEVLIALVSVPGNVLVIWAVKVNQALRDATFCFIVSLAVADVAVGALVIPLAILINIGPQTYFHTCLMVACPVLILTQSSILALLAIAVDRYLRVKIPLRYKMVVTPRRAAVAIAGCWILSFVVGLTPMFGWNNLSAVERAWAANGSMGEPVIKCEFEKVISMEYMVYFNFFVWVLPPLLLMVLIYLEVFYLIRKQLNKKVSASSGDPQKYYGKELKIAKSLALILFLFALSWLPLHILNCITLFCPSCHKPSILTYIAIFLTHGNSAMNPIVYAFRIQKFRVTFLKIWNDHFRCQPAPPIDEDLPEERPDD

A1 receptors [5] = target: T4, A1 receptors (Mus musculus, UniProt Q60612); assay: Inhibition of forskolin-stimulated cAMP accumulation in mouse eEPCs; settings: for Affinity or potency at A1, mouse (m), current study, log / Affinity or potency (Ki, KD, KB, IC50 or EC50) at A1, mouse (m), current study: data from the current study (no reference); for Affinity or potency (Ki, KD, KB, IC50 or EC50) at A1, mouse (m), current study: 95% CI in parentheses
T4 sequence (Q60612 1-326): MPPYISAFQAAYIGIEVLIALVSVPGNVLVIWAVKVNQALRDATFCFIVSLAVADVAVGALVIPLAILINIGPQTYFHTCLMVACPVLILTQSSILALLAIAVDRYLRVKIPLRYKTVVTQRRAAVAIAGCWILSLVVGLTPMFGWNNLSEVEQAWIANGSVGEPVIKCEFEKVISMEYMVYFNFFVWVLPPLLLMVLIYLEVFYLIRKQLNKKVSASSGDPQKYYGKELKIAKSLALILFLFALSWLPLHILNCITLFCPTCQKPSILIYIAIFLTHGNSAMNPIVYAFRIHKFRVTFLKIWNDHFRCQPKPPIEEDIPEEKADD

HMVEC-c cells = assay: cAMP accumulation in HMVEC-c cells; format: cell-based, human
From the text: Primary cultures of human cardiac microvascular endothelial cells (HMVEC-c) were obtained from Cambrex (Walkersville, Md.), and cultured using EGM™-2 MV growth medium (Cambrex). HMVEC-c from passages 2 to 5 were used. Measurement of cAMP accumulation.

[6] = tested on: eEPC retention in isolated hearts; assay: eEPC retention in isolated mouse hearts (Langendorff perfusion)
Protocol: Isolated mouse heart model. Six male C57Bl/6 mice (Jackson Laboratory, Bar Harbor, Me.) at age of 6-8 weeks were used. The study was conducted in accordance with the Guide for the Care and Use of Laboratory Animals as adopted and promulgated by the U.S. National Institutes of Health. Hearts were rapidly removed from mice anesthetized with inhalation of isoflurane. The aorta was cannulated and connected to a Langendorff apparatus. […] After a 30 min stabilization period, hearts were perfused with 1.5 mmol/L FITC-conjugated Helix pomatia lectin (Sigma) for 10 min to label endothelial cells of perfused vessels followed by a 10 min washing period with KH buffer. […] After washing with KH buffer for 10 min to remove unbound eEPCs, hearts were dissected, and placed on a microscopic stage. Retention of eEPCs in hearts was analyzed by taking 10 random images of the left ventricle using epifluorescence microscopy (20× objective). Area of EPC-emitted fluorescence was measured using NIH ImageJ software and normalized to the area of vascular endothelium stained with FITC-lectin.

A1 adenosine receptor [7] = target: T5, A1 adenosine receptor (Mus musculus, UniProt Q60612); settings: cited from earlier work; for Ki: read-out: Affinity or potency at A1, mouse (m)
T5 sequence (Q60612 1-326): T4 sequence (Q60612 1-326)

eEPCs = assay: cAMP accumulation in mouse eEPCs (forskolin, NECA)
A2B adenosine receptor [8] = target: T6, A2B adenosine receptor (Mus musculus, UniProt Q60614); settings: [9] Kreckler et al. (2006), transfected HEK 293, radioligand [3H]MRS1754, cited from earlier work
T6 sequence (Q60614 1-332): T1 sequence (Q60614 1-332)

A2A adenosine receptor [9] = target: A2A adenosine receptor (Mus musculus, UniProt Q60613); settings: [9] Kreckler et al. (2006), transfected HEK 293, radioligand [125I]ZM241385, cited from earlier work
Sequence of A2A adenosine receptor (Mus musculus, UniProt Q60613) (Q60613 whole entry): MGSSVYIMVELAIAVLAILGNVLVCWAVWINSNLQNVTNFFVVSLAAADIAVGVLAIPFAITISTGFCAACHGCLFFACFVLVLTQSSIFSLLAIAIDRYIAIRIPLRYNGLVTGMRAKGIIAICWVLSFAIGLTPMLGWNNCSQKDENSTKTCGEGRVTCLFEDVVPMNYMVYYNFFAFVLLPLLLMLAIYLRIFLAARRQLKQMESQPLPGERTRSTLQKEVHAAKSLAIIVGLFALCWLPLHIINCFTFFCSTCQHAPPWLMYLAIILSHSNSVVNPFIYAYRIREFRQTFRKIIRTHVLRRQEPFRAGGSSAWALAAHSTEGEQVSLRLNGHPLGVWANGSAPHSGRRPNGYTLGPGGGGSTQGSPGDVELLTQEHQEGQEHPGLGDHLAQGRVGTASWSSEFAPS

A1 receptors [10] = target: T4, A1 receptors; assay: Inhibition of forskolin-induced cAMP accumulation in MCEC-1 cells
[11] = [6] Maemoto et al. (1997), brain cortex, radioligand [3H]DPCPX
[12] = [9] Kreckler et al. (2006), transfected HEK 293, radioligand [125I]I-AB-MECA

Sequence of A2A adenosine receptor (Homo sapiens, UniProt P29274) (P29274 whole entry): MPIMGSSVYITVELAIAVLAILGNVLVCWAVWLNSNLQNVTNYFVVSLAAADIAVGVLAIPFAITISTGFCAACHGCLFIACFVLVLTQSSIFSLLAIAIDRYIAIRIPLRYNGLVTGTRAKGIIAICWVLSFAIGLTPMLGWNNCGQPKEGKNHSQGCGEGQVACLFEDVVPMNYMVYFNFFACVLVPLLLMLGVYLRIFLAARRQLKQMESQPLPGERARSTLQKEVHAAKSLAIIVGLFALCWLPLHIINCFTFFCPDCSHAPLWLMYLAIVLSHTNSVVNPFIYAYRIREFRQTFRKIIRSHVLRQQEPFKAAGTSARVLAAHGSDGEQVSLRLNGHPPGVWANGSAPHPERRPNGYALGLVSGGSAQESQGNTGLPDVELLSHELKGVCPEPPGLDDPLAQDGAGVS

- Kd (A2B receptors): 603 nM
- Schild analysis slope (A2B receptors; NECA-induced cAMP accumulation in MCEC-1, simple competitive antagonism at A2B): 1.1
- Affinity or potency at A2B, mouse (m), current study, log (A2B receptors; data from the current study (no reference)): −6.2 log mol/L
- Affinity or potency (Ki, KD, KB, IC50 or EC50) at A2B, mouse (m), current study (A2B receptors; data from the current study (no reference), 95% CI in parentheses): 603 nmol/L
- IC50 ([2]; Mus musculus, read-out: IC50, inhibition of NECA-induced eEPC adhesion): 1600 nM
- Affinity or potency at A1, mouse (m), current study, log (A1 receptors [5]): 24,870); −4.6 log mol/L
- Affinity or potency (Ki, KD, KB, IC50 or EC50) at A1, mouse (m), current study (A1 receptors [5]): m 20,000 (16,230- nmol/L
Compound: CC(C)Cn1c(=O)[nH]c(=O)c2[nH]c(N3CCCC3)nc21 [IPDX, 3-isobutyl-8-pyrrolidinoxanthine]
- Affinity or potency at A2A, human (h), log (A2A adenosine receptor [1]): −4.4 log mol/L
- Ki (A2A adenosine receptor [1]; read-out: Affinity or potency at A2A, human (h)): 36 µM
- Affinity or potency at A2B, human (h), log (A2B adenosine receptor [3]): −6.2 log mol/L
- Ki (A2B adenosine receptor [3]; read-out: Affinity or potency at A2B, human (h)): 625 nM
- Affinity or potency at A1, human (h), log (A1 adenosine receptor [4]): −4.6 log mol/L
- Ki (A1 adenosine receptor [4]; read-out: Affinity or potency at A1, human (h)): 24 µM

Compound: CCNC(=O)[C@H]1O[C@@H](n2cnc3c(N)nc(NCCc4ccc(CCC(=O)O)cc4)nc32)[C@H](O)[C@@H]1O [CGS21680, 4-((N-ethyl-5′-carbamoyladenos-2-yl)-aminoethyl)-phenyl-propionic acid]
- Effect on cAMP accumulation in HMVEC-c (HMVEC-c cells): no significant effect
- Effect on eEPC retention ([6]; 3 nmol/L, compared with 10 μmol/L adenosine): considerably less effect
- Effect on eEPC adhesion ([2]; 30 minutes): virtually no effect
- Affinity or potency at A1, mouse (m), log (A1 adenosine receptor [7]; [11]): 28,200); −4.85 [6] log mol/L

Compound: OC[C@H]1O[C@@H](n2cnc3c(O)ncnc32)[C@H](O)[C@@H]1O [inosine]
- Effect on eEPC retention ([6]; 100 μmol/L): no effect

- EC50 (eEPCs; Mus musculus, read-out: EC50, increase of cAMP levels in eEPCs): 1100 nM
Compound: C=C[C@@]1(C)CC(=O)[C@]2(O)[C@@]3(C)[C@@H](O)CCC(C)(C)[C@@H]3[C@H](O)[C@H](OC(C)=O)[C@@]2(C)O1 [Forskolin, forskolin]
- cAMP levels in eEPCs (eEPCs; maximal increase from basal 4.3±0.7): 35±2 pmol per well

Compound: Fucoidan
- Effect on NECA-dependent stimulation of eEPC adhesion ([2]; 10 μmol/L NECA): inhibited

Compound: CCCn1c(=O)c2[nH]c(C3CCCC3)nc2n(CCC)c1=O [DPCPX, 8-cyclopentyl-1,3-dipropylxanthine]
- Affinity or potency at A2B, mouse (m), log (A2B adenosine receptor [8]): −7.1 log mol/L
- Ki (A2B adenosine receptor [8]; read-out: Affinity or potency at A2B, mouse (m)): 86 nM
- Affinity or potency at A2A, mouse (m), log (A2A adenosine receptor [9]): −6.2 log mol/L
- Ki (A2A adenosine receptor [9]; read-out: Affinity or potency at A2A, mouse (m)): 598 nM
- EC50 (A1 receptors [5]): 1.5 nM
- Affinity or potency at A1, mouse (m), current study, log (A1 receptors [5]): −8.8 log mol/L
- Affinity or potency at A1, mouse (m), log (A1 adenosine receptor [7]; [11]): −9.3 log mol/L
- Affinity or potency at A1, mouse (m), log (A1 adenosine receptor [7]; [12]): −8.8 log mol/L
- Ki (A1 adenosine receptor [7]; [11]): 0.4 nM
- Ki (A1 adenosine receptor [7]; [12]): 1.5 nM

Compound: Pertussis toxin
- Effect on TNF-α-induced eEPC adhesion ([2]; eEPCs preincubated with pertussis toxin 12 hours): no effect
- Effect on stimulation of adhesion induced by NECA ([2]; eEPCs preincubated with pertussis toxin 12 hours, 10 μmol/L NECA): significantly attenuated but did not completely block
- Effect on ability of CPA to inhibit forskolin-stimulated adenylate cyclase (A1 receptors [5]; eEPCs preincubated with pertussis toxin for 12 hours): completely abrogated

- Concentrations at which inhibition was reversed (A1 receptors [10]; MCEC-1, presumably stimulation of A2B receptors): > 100 nmol/L
- EC50 (A1 receptors [5]): 1.3 nM
- Affinity or potency at A1, mouse (m), current study, log (A1 receptors [5]): −8.9 log mol/L
- Affinity or potency (Ki, KD, KB, IC50 or EC50) at A1, mouse (m), current study (A1 receptors [5]): 1.2 (0.6-2.4) nmol/L
Compound: OC[C@H]1O[C@@H](n2cnc3c(NC4CCCC4)ncnc32)[C@H](O)[C@@H]1O [CPA, N^6-cyclopentyladenosine]
- eEPC adhesion ([2]; 10 nmol/L, 30 minutes, basal 4.5±0.3%): 7.4±0.6%
- Effect on forskolin-stimulated adenylate cyclase in MCEC-1 (A1 receptors [10]; selective (low nanomolar) concentrations, 1 μmol/L forskolin): inhibited forskolin-stimulated adenylate cyclase
- Affinity or potency at A1, mouse (m), log (A1 adenosine receptor [7]; [11]): −8.5 log mol/L
- Ki (A1 adenosine receptor [7]; [11]): 3.3 nM
